According to ChEMBL document CHEMBL5346943, “Discovery and Structural Optimization of Novel Quinolone Derivatives as Potent Irreversible Pan-Fibroblast Growth Factor Receptor Inhibitors for Treating Solid Tumors” (J Med Chem, 2023):
Values belong to the compound of their own block, whether it stands above or below them.

Tests used:
Huh-7 = test: Antiproliferative activity against human Huh-7 cells incubated for 72 hrs by Cell counting kit 8 method; assay type: functional, cell-based; details: Huh-7, 72 h
Hep 3B2 = test: Antiproliferative activity against human Hep3B cells incubated for 72 hrs by Cell counting kit 8 method; assay type: functional, cell-based
[1] = target: T1, Fibroblast growth factor receptor 4 (Homo sapiens, UniProt P22455); test: Inhibition of FGFR4 (unknown origin) incubated for 10 mins followed by substrate addition measured after 60 mins by ADP-Glo luminescence assay
Target sequence in this assay (P22455 whole entry): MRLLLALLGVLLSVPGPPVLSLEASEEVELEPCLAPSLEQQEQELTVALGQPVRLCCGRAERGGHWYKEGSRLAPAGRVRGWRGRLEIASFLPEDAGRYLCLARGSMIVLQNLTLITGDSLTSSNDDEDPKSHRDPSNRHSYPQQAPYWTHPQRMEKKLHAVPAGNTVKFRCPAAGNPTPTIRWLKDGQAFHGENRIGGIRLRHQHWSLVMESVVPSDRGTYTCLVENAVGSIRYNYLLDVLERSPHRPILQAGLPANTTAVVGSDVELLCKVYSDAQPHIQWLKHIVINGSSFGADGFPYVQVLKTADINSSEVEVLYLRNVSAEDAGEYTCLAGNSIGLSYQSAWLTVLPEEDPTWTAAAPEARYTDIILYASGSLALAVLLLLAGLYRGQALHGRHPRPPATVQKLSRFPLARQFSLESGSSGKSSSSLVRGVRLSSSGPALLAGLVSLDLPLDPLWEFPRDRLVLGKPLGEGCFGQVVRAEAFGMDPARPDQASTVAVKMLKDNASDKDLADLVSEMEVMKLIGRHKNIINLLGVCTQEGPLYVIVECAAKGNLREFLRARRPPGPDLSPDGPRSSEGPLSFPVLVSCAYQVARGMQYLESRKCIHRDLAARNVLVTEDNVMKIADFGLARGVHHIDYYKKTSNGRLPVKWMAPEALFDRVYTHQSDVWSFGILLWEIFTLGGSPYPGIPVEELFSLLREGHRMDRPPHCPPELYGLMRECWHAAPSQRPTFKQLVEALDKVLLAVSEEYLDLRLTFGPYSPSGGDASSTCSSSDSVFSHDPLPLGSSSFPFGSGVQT

[2] = target: T1, Fibroblast growth factor receptor 4; test: Inhibition of FGFR4 (unknown origin) at 100 nM incubated for 10 mins followed by substrate addition measured after 60 mins by ADP-Glo luminescence assay relative to control; details: time 70.0 min
Target sequence in this assay (P22455 22-802 limits assumed): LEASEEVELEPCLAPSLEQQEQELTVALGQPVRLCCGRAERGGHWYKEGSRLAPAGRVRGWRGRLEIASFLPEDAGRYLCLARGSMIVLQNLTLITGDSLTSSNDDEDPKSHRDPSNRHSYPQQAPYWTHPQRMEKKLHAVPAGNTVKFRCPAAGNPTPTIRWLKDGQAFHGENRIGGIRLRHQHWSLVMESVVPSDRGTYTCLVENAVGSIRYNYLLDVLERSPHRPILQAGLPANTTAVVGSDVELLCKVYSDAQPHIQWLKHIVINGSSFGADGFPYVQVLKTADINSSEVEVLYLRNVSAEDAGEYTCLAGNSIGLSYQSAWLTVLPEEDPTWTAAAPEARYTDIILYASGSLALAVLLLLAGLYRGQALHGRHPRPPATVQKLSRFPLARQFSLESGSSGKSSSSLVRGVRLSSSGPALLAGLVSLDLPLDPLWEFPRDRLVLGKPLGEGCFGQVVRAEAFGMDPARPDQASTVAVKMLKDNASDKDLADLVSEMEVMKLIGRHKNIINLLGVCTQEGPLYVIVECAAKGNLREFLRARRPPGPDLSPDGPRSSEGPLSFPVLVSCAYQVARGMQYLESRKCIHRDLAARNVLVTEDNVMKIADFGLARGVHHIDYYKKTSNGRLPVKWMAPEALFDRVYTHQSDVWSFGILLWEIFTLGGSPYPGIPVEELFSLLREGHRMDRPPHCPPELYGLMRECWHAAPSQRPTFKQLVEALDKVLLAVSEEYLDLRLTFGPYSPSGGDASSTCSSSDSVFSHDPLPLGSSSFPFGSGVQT

[3] = target: Fibroblast growth factor receptor 2 (Homo sapiens, UniProt P21802); test: Inhibition of FGFR2 (unknown origin) incubated for 10 mins followed by substrate addition measured after 60 mins by ADP-Glo luminescence assay
[4] = C0 in Sprague-Dawley rat measured at 2 mg/kg, iv for 0.083 to 24 hrs by LC-MS/MS analysis; assay type: ADME, organism-based; details: in vivo, time 0.083-24 hrs
[5] = MRT (0 to t) in Sprague-Dawley rat measured at 10 mg/kg, po for 0.083 to 24 hrs by LC-MS/MS analysis; assay type: ADME, organism-based; details: in vivo, time 0.083-24 hrs
[6] = AUC (0 to t) in Sprague-Dawley rat measured at 2 mg/kg, iv for 0.083 to 24 hrs by LC-MS/MS analysis; assay type: ADME, organism-based; set-up: dose 2 mg/kg, time upper 24 hrs, time lower 0.083 hrs, route iv; details: in vivo
[7] = Ionization constant, pKa of the compound in PBS buffer at pH 1.42 to 12.33 by electrochemical method; assay type: physicochemical
[8] = AUC (0 to t) in Sprague-Dawley rat measured at 10 mg/kg, po for 0.083 to 24 hrs by LC-MS/MS analysis; assay type: ADME, organism-based; set-up: dose 10 mg/kg, time upper 24 hrs, time lower 0.083 hrs, route po; details: in vivo
[9] = Solubility of the compound in PBS buffer of pH7.4 at 10 mM measured after 2 hrs by LC-MS/MS analysis; assay type: physicochemical; details: pH 7.4
[10] = target: Fibroblast growth factor receptor 1 (Homo sapiens, UniProt P11362); test: Inhibition of FGFR1 (unknown origin) incubated for 10 mins followed by substrate addition measured after 60 mins by ADP-Glo luminescence assay
[11] = Volume of distribution at steady state in Sprague-Dawley rat measured at 2 mg/kg, iv for 0.083 to 24 hrs by LC-MS/MS analysis; assay type: ADME, organism-based; details: in vivo, time 0.083-24 hrs, read-out: Vdss
[12] = AUC (0 to infinity) in Sprague-Dawley rat measured at 2 mg/kg, iv for 0.083 to 24 hrs by LC-MS/MS analysis; assay type: ADME, organism-based; set-up: time lower 0.083 hrs, dose 2 mg/kg, time upper 24 hrs, route iv; details: in vivo
[13] = Half life in Sprague-Dawley rat measured at 2 mg/kg, iv for 0.083 to 24 hrs by LC-MS/MS analysis; assay type: ADME, organism-based; details: in vivo, time 0.083-24 hrs
[14] = Permeability of the compound at 10 uM preincubated in acceptor compartment for 16 hrs followed by 16 hrs incubation in donor compartment by PAMPA based LC-MS/MS analysis; assay type: ADME; details: time 32 hrs, read-out: permeability
[15] = Tmax in Sprague-Dawley rat measured at 2 mg/kg, iv for 0.083 to 24 hrs by LC-MS/MS analysis; assay type: ADME, organism-based; details: in vivo, time 0.083-24 hrs
[16] = Oral bioavailability in Sprague-Dawley rat measured at 10 mg/kg for 0.083 to 24 hrs by LC-MS/MS analysis; assay type: ADME, organism-based; details: in vivo, time 0.083-24 hrs
[17] = MRT (0 to t) in Sprague-Dawley rat measured at 2 mg/kg, iv for 0.083 to 24 hrs by LC-MS/MS analysis; assay type: ADME, organism-based; details: in vivo, time 0.083-24 hrs
[18] = Clearance in Sprague-Dawley rat measured at 2 mg/kg, iv for 0.083 to 24 hrs by LC-MS/MS analysis; assay type: ADME, organism-based; details: in vivo, time 0.083-24 hrs
[19] = Cmax in Sprague-Dawley rat measured at 2 mg/kg, iv for 0.083 to 24 hrs by LC-MS/MS analysis; assay type: ADME, organism-based; set-up: time upper 24 hrs, time lower 0.083 hrs, dose 2 mg/kg, route iv; details: in vivo
[20] = MRT (0 to infinity) in Sprague-Dawley rat measured at 10 mg/kg, po for 0.083 to 24 hrs by LC-MS/MS analysis; assay type: ADME, organism-based; details: in vivo, time 0.083-24 hrs
[21] = Cmax in Sprague-Dawley rat measured at 10 mg/kg, po for 0.083 to 24 hrs by LC-MS/MS analysis; assay type: ADME, organism-based; set-up: time 0.083-24 hrs, dose 10 mg/kg, route po; details: in vivo
[22] = target: Fibroblast growth factor receptor 3 (Homo sapiens, UniProt P22607); test: Inhibition of FGFR3 (unknown origin) incubated for 10 mins followed by substrate addition measured after 60 mins by ADP-Glo luminescence assay
[23] = MRT (0 to infinity) in Sprague-Dawley rat measured at 2 mg/kg, iv for 0.083 to 24 hrs by LC-MS/MS analysis; assay type: ADME, organism-based; details: in vivo, time 0.083-24 hrs
[24] = Tmax in Sprague-Dawley rat measured at 10 mg/kg, po for 0.083 to 24 hrs by LC-MS/MS analysis; assay type: ADME, organism-based; details: in vivo, time 0.083-24 hrs
[25] = Half life in Sprague-Dawley rat measured at 10 mg/kg, po for 0.083 to 24 hrs by LC-MS/MS analysis; assay type: ADME, organism-based; details: in vivo, time 0.083-24 hrs
[26] = AUC (0 to infinity) in Sprague-Dawley rat measured at 10 mg/kg, po for 0.083 to 24 hrs by LC-MS/MS analysis; assay type: ADME, organism-based; set-up: dose 10 mg/kg, time upper 24 hrs, time lower 0.083 hrs, route po; details: in vivo

Chain of Fibroblast growth factor receptor 2 (P21802 whole entry): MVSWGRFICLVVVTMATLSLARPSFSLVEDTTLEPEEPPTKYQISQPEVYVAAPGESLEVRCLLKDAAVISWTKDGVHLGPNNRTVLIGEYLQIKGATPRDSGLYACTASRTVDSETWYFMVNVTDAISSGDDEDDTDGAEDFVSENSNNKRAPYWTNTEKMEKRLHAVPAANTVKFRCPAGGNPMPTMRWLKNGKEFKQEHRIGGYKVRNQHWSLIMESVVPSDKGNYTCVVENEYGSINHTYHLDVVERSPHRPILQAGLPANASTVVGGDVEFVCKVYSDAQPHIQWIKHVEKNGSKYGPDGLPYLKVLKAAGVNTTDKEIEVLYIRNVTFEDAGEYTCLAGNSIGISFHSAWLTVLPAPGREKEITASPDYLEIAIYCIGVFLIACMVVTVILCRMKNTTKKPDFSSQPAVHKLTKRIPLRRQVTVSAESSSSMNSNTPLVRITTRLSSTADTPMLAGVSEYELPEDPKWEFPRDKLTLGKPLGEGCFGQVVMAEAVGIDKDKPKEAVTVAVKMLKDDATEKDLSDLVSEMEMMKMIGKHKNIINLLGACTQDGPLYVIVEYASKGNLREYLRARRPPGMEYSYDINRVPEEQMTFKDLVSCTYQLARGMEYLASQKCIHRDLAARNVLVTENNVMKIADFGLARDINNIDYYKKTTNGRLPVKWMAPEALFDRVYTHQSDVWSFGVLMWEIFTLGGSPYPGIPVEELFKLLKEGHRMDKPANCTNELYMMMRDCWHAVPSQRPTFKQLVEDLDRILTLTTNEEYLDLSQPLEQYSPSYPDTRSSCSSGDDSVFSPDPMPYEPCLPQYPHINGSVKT
Chain of Fibroblast growth factor receptor 1 (P11362 whole entry): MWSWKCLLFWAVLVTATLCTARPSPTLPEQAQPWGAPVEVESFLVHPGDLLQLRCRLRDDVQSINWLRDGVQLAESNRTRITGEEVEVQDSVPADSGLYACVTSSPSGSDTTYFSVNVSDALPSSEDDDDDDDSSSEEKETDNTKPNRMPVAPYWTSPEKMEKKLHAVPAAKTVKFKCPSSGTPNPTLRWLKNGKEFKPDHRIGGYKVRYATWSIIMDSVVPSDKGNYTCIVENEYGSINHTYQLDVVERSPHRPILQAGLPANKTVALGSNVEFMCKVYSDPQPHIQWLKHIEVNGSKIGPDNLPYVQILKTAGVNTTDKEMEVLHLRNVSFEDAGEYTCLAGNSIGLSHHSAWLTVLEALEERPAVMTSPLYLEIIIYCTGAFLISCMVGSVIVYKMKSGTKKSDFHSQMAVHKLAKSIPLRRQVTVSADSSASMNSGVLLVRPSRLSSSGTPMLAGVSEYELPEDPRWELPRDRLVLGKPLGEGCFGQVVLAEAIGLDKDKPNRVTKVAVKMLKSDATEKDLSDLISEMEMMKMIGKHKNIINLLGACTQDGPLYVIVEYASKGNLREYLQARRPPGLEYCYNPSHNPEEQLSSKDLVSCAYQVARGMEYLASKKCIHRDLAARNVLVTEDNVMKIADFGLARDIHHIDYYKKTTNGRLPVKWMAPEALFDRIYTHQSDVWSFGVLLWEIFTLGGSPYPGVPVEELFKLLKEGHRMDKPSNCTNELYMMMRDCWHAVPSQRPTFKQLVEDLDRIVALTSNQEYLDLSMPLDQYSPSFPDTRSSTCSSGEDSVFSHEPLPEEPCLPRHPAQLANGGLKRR
Chain of Fibroblast growth factor receptor 3 (P22607 whole entry): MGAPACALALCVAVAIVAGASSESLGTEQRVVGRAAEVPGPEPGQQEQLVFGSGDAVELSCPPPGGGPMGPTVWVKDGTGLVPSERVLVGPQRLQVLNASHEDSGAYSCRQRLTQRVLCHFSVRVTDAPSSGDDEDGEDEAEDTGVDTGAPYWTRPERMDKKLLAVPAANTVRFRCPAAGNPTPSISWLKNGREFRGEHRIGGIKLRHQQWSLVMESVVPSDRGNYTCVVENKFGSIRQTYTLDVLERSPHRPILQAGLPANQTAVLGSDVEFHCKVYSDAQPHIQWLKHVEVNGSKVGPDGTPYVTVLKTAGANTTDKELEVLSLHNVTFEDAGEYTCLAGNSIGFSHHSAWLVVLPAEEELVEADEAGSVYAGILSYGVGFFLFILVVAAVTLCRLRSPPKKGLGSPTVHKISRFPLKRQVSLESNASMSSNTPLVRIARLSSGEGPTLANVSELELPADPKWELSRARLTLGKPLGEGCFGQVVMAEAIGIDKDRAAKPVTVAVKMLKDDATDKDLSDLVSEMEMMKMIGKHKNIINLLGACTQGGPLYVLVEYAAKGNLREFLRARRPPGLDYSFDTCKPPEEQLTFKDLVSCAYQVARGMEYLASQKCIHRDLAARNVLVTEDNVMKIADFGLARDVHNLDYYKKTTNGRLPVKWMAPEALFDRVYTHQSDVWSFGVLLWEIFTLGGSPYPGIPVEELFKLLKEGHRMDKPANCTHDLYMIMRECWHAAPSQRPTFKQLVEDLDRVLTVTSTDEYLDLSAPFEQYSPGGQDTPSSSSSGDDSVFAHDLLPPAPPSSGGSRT

SMILES: C=CC(=O)N1CCC(c2cc3c(Oc4ccc5c(C(=O)NC)cccc5c4)ccnc3cc2OC)CC1
- IC50 (Huh-7): 114 nM
- IC50 (Hep 3B2): 125 nM
- inhibition [2]: 24%

SMILES: C=CS(=O)(=O)N1CC=C(c2cc3c(Oc4ccc(NC(=O)NC5CC5)c(Cl)c4)ccnc3cc2OC)CC1
- IC50 (Huh-7): > 10000 nM
- IC50 (Hep 3B2): 5080 nM
- IC50 [1]: 4.65 nM

SMILES: C=CC(=O)N1CCC(c2cc3c(Nc4ccc(F)c(Cl)c4)ccnc3cc2OC)CC1
- IC50 (Huh-7): > 10000 nM
- IC50 (Hep 3B2): > 10000 nM
- inhibition [2]: 15.3%

SMILES: C=CC(=O)N1CCC(c2cc3c(Oc4cc5cc(C)[nH]c5cc4F)ccnc3cc2OC)CC1
- IC50 (Huh-7): 216 nM
- IC50 (Hep 3B2): 313 nM
- inhibition [2]: 20.6%

SMILES: COc1cc2nccc(Oc3ccc(NC(=O)NC4CC4)c(Cl)c3)c2cc1C1CCN(C(=O)C(F)(F)F)CC1
- IC50 (Huh-7): 1410 nM
- IC50 (Hep 3B2): > 10000 nM
- inhibition [2]: 25.6%

SMILES: C=CC(=O)N1CCC(c2cc3c(Oc4ccc(/N=C5\CCCN5C)c(Cl)c4)ccnc3cc2OC)CC1
- IC50 (Huh-7): > 10000 nM
- IC50 (Hep 3B2): > 10000 nM

SMILES: COc1cc2nccc(Oc3ccc(NC(=O)NC4CC4)c(Cl)c3)c2cc1C1=CCN(C(=O)CCl)CC1
- IC50 (Huh-7): > 10000 nM
- IC50 (Hep 3B2): 1660 nM
- IC50 [1]: 294 nM

SMILES: C=CC(=O)N1CCC(c2cc3c(Oc4ccc(NC(=O)c5c(C)n(C)n(-c6ccccc6)c5=O)cc4F)ccnc3cc2OC)CC1
- IC50 (Huh-7): 1710 nM
- IC50 (Hep 3B2): 450 nM

SMILES: C=CC(=O)N1CCC(c2cc3c(Oc4ccc(NC(=O)Nc5cc(C)on5)c(Cl)c4)ccnc3cc2OC)CC1
- IC50 (Huh-7): 384 nM
- IC50 (Hep 3B2): 664 nM
- inhibition [2]: 36.5%

These reach a lower IC50 (Huh-7). Values come first.

- IC50 (Huh-7): 16.9 nM
- IC50 [1]: 5.73 nM
SMILES: C=CC(=O)N1CCC(c2cc3c(Oc4ccc(NC(=O)NC5CC5)c(Cl)c4)ccnc3cc2OC)C(C)C1 (centres undefined)
- IC50 (Hep 3B2): 13.3 nM

- IC50 (Huh-7): 26.1 nM
- IC50 [1]: 4.6 nM
SMILES: COc1cc2nccc(Oc3ccc(NC(=O)NC4CC4)c(Cl)c3)c2cc1C1CCN(C(=O)/C=C/CN(C)C)CC1
- IC50 (Hep 3B2): 30 nM

- IC50 [3]: 5.2 nM
- C0 [4]: 3090 ng/mL
- MRT last [5]: 79.8 min
- AUC(0-t) [6]: 505 ng·h/mL
- IC50 (Huh-7): 9.4 nM
- pKa [7]: 5.28
- AUC(0-t) [8]: 1100 ng·h/mL
- solubility at 2 h, 10000 µM [9]: < 0.073 µM
- IC50 [10]: 4.5 nM
- Vd [11]: 0.659 L/kg
- AUC(0-inf) [12]: 506 ng·h/mL
- half-life [13]: 14.4 min
- Papp at 16 h, 10 µM [14]: 1.11 ×10⁻⁶ cm/s
- Tmax [15]: 4.8 min
- bioavailability [16]: 43.7%
- MRT last [17]: 9.6 min
- clearance [18]: 66 mL/min/kg
- Cmax [19]: 1700 ng/mL
- IC50 [1]: 230 nM
- MRT [20]: 85.2 min
- Cmax [21]: 1680 ng/mL
- IC50 [22]: 5.5 nM
- MRT [23]: 10.2 min
- Tmax [24]: 15 min
- half-life [25]: 78 min
- AUC(0-inf) [26]: 1120 ng·h/mL
SMILES: C=CC(=O)N1CCC(c2cc3c(Oc4ccc(NC(=O)NC5CC5)c(Cl)c4)ccnc3cc2OCC)CC1
- IC50 (Hep 3B2): 17.4 nM

- IC50 (Huh-7): 17.8 nM
- IC50 [1]: 7.04 nM
SMILES: [2H]C([2H])([2H])Oc1cc2nccc(Oc3ccc(NC(=O)NC4CC4)c(Cl)c3)c2cc1C1CCN(C(=O)C=C)CC1
- IC50 (Hep 3B2): 72.6 nM

- IC50 (Huh-7): 37.8 nM
- IC50 [1]: 17 nM
SMILES: C=CC(=O)N1CCC(c2cc3c(Oc4ccc(NC(=O)NC5CC5)c(Cl)c4)ccnc3cc2OC(C)C)CC1
- IC50 (Hep 3B2): 63.6 nM
